Reference: US9447057B2, “Schiff bases of thiazoles: a new class of ureases inhibitors” (priority 2014, dated 2016)
“Also recorded” adds a separate entry of the source. Like-named read-outs stand apart in the source and are kept apart here.

Key:
[1] = target: Jack bean (Canavalia ensiformis) urease (Canavalia ensiformis (Jack bean) (Dolichos ensiformis), UniProt P07374); assay: biochemical; format: biochemical; settings: for urease inhibitory activity compared with standard thiourea: in words
Description: The Schiff bases of thiazoles were evaluated for their urease inhibitory potential by using the following protocol:
Finally the results were processed by software SoftMax Pro (Molecular Devices, CA, USA), MS-Excel and Ez-fit. The Percent inhibition was calculated from the formula given below: 100−(OD of test compound/OD of control)×100
The IC50 values were then calculated using the EZ-Fit Enzyme Kinetics program (Perrella Scientific Inc., Amherst, U.S.A.).

jack bean urease = jack bean urease (Canavalia ensiformis (Jack bean) (Dolichos ensiformis), UniProt P07374); assay: biochemical; format: biochemical; parameters: Vmax / Vmaxapp: unit not given here; settings: for Type of Inhibition: from Lineweaver-Burk plot; for Kmapp / Km: substrate urea; for Kmapp / Vmaxapp: in presence of inhibitor; for Km / Vmax: without inhibitor
Description: The Lineweaver-Burk plot was used to determine the type of inhibition, while Dixon plot and secondary replete were used for the determination of dissociation constants (Ki). The Ki, Km, and Vmax were determined by non-linear regression equation. The Ki value was determined from lineweaver-Burk plot. For the calculation of Ki values, initially the 1/Vmaxapp values were determine on y-axis of lineweaver-Burk plot at each junction point of lines of every inhibitor concentration. Secondly the slope of the inhibitor at concentration of each line were determined on Lineweaver-Burk plot and re-plotted against the inhibitor concentrations.
Graphs were plotted using GraFit program. Values of the correlation coefficients, slopes, intercepts, and their standard errors were obtained by the linear regression analysis using the same program. Each point in the constructed graphs represents the mean of the three experiments.
In mixed-type of inhibition, both Km and Vmax are affected.
Three different methods were applied to determine the type of inhibition and Ki values for these inhibitors. Firstly by using Lineweaver-Burk plots the reciprocal of the rate of the reaction were plotted against the reciprocal of substrate concentration to monitor the effect of inhibitor on both Km and Vmax. Secondly the secondary replots of Lineweaver-Burk plots were plotted to determine the Ki value. The Ki values were calculated by plotting the slope of each line in the Lineweaver-Burk plots against the different concentration of inhibitors.

[2] = Jack bean urease, pH 6.8, 100 mM urea, 30° C., 15 min, read-out: IC50 ± SEM
[3] = Table 2, jack bean urease, read-out: IC50
[4] = mean of triplicate, read-out: Ki ± S.E.M.

C(=Nc1nc(-c2ccccc2)cs1)c1c[nH]c2ccccc12 [Compound 2, N-[1H-indol-3-yl-methylidene]-N-(4-phenyl-1,3-thiazol-2-yl)amine]
IC50 [1, 2]: 8.56 ± 0.027 µM | IC50 [1, 3]: 8.5 µM | Ki (jack bean urease): 9.6 ± 0.0024 µM

CCOc1cccc(C=Nc2nc(-c3ccccc3)cs2)c1O [Compound 3, 2-Ethoxy-6-{[(4-phenyl-1,3-thiazol-2-yl)imino]methyl}phenol]
IC50 ([1]; IC50): 7.9 µM | IC50 ([1]; IC50 ± SEM): 7.9 ± 0.08 µM | Ki (jack bean urease): 9.7 ± 0.007 µM

COc1cccc(C=Nc2nc(-c3ccccc3)cs2)c1O [Compound 6, 2-Methoxy-6-{[(4-phenyl-1,3-thiazol-2-yl)imino]methyl} phenol]
IC50 ([1]; IC50): 8.8 µM | Ki (jack bean urease): 8.22 ± 0.0233 µM

Oc1ccc(Cl)cc1C=Nc1nc(-c2ccccc2)cs1 [Compound 8, 4-Chloro-2-{[(4-phenyl-1,3-thiazol-2-yl)imino]methyl} phenol]
IC50 [1, 2]: 8.13 ± 0.02 µM | IC50 [1, 3]: 8.1 µM | Ki (jack bean urease): 7.89 ± 0.0142 µM

Cc1ccc(C=Nc2nc(-c3ccccc3)cs2)o1 [Compound 10, N-[(5-Methyl-2-furyl)methylidene]-N-(4-phenyl-1,3-thiazol-2-yl)amine]
IC50 [1, 2]: 17.83 ± 0.07 µM | IC50 [1, 3]: 17.8 µM | Ki (jack bean urease): 14.82 ± 0.0109 µM

Oc1ccc(C=Nc2nc(-c3ccccc3)cs2)cc1 [Compound 12, 4-{[(4-Phenyl-1,3-thiazol-2-yl)imino]methyl}phenol]
IC50 ([1]; IC50 ± SEM): 20.16 ± 0.07 µM

Oc1ccccc1C=Nc1nc(-c2ccccc2)cs1 [Compound 16, 2-{[(4-Phenyl-1,3-thiazol-2-yl)imino]methyl} phenol]
IC50 [1, 2]: 12.4 ± 0.14 µM

C(=Nc1nc(-c2ccccc2)cs1)c1cccc2ccccc12 [Compound 21, N-[1-Naphthyl-methylidene]-N-(4-phenyl-1,3-thiazol-2-yl)amine]
IC50 [1, 2]: 23.06 ± 0.11 µM

Oc1cccc(C=Nc2nc(-c3ccccc3)cs2)c1O [Compound 23, 3-{[(4-Phenyl-1,3-thiazol-2-yl)imino]methyl}-1,2-benzenediol]
IC50 ([1]; IC50 ± SEM): 19.63 ± 0.19 µM

NC(N)=S [Thiourea, reference compound]
Type of Inhibition (jack bean urease): Competitive inhibition | Ki (jack bean urease; [4]): 20.01 ± 0.02 µM | Kmapp (jack bean urease): 7.38 mM | Km (jack bean urease): 2250 µM

N-(4-Phenyl-1,3- thiazol-2-yl)-N-[4- pyridinylmethyl- idene]amine [Compound 5]
IC50 ([1]; read-out: IC50): 7.6 µM | IC50 ([1]; read-out: IC50 ± SEM): 7.6 ± 0.08 µM | Type of Inhibition (jack bean urease): Competitive inhibition | Vmaxapp (jack bean urease): 23.5 | Ki (jack bean urease; [4]): 13.6 ± 0.0123 µM | Kmapp (jack bean urease): 5.09 mM | Km (jack bean urease): 2250 µM | Vmax (jack bean urease): 21.64

N-[2,6-Dichloro- phenyl)methylidene]-N-(4- phenyl-1,3-thiazol- 2-yl)amine [Compound 25]
IC50 [1, 2]: 22.33 ± 0.11 µM | urease inhibitory activity compared with standard thiourea [1]: significant urease inhibitory activity, comparable to standard

N-[2-Chloro- phenyl)methylidene]- N-(4-phenyl-1,3- thiazol-2-yl) amine [Compound 20]
IC50 [1, 2]: 13.03 ± 0.02 µM

N-[2-Fluorophenyl) methylidene]-N- (4-phenyl-1,3- thiazol-2-yl)amine [Compound 22]
IC50 [1, 2]: 17.93 ± 0.07 µM

N-[2-Naphthylmethyl- idene]-N-(4-phenyl- 1,3-thiazol-2-yl)amine [Compound 7]
IC50 [1, 2]: 9.33 ± 0.02 µM | IC50 [1, 3]: 9.33 µM | Type of Inhibition (jack bean urease): Competitive inhibition | Vmaxapp (jack bean urease): 29 | Ki (jack bean urease; [4]): 11.89 ± 0.004 µM | Kmapp (jack bean urease): 6.28 mM | Km (jack bean urease): 2250 µM | Vmax (jack bean urease): 28.8

N-[4-(Dimethylamino) phenyl]methylidene}-N- (4-phenyl-1,3-thiazol-2- yl)amine [Compound 14]
IC50 [1, 2]: 20.36 ± 0.11 µM

N-[4-(Methylsulfanyl) phenyl]methylidene}-N- (4-phenyl-1,3-thiazol-2- yl)amine [Compound 18]
IC50 [1, 2]: 6.96 ± 0.054 µM

N-[4-Chlorophenyl) methylidene]-N-(4-phenyl- 1,3-thiazol-2-yl)amine [Compound 26]
IC50 [1, 2]: 19 ± 0.04 µM

N-[4-Ethoxyphenyl)methyl- idene]-N-(4-phenyl-1,3- thiazol-2-yl)amine [Compound 4]
IC50 [1, 3]: 11.2 µM | Type of Inhibition (jack bean urease): mixed-type; also recorded: Mixed inhibition | Vmaxapp (jack bean urease): 12.85 | Ki (jack bean urease; [4]): 9.23 ± 0.018 µM | Kmapp (jack bean urease): 2.56 mM | Km (jack bean urease): 2250 µM | Vmax (jack bean urease): 23.47

N-[4-Isopropylphenyl) methylidene]-N-(4- phenyl-1,3-thiazol-2- yl)amine [Compound 9]
IC50 [1, 2]: 14.5 ± 0.16 µM | IC50 [1, 3]: 14.5 µM | Type of Inhibition (jack bean urease): mixed-type; also recorded: Mixed inhibition | Vmaxapp (jack bean urease): 8.72 | Ki (jack bean urease; [4]): 12.39 ± 0.0168 µM | Kmapp (jack bean urease): 3.22 mM | Km (jack bean urease): 2200 µM | Vmax (jack bean urease): 19

N-[4-Methoxyphenyl) methylidene]-N-(4- phenyl-1,3-thiazol-2- yl)amine [Compound 13]
urease inhibitory activity compared with standard thiourea [1]: significant urease inhibitory activity, comparable to standard

N-[4-Nitrophenyl)methyl- idene]-N-(4-phenyl-1,3- thiazol-2-yl)amine [Compound 11]
IC50 [1, 2]: 32.5 ± 0.02 µM | urease inhibitory activity compared with standard thiourea [1]: significant urease inhibitory activity, comparable to standard

N-[Phenylmethyl- idene]-N-(4-phenyl- 1,3-thiazol-2-yl) amine [Compound 19]
IC50 [1, 2]: 16.76 ± 0.054 µM
